Data: patent publication US20260043057A1, “ENZYMATIC SYNTHESIS OF MYCOSPORINE-LIKE AMINO ACIDS” (University of Florida Research Foundation, Incorporated, priority 2022, published 2026)
Each block holds one compound with its values, some of them ahead of it.

Tests used:
[1] = Maximal UV absorbance of MAAs by HPLC with PDA detector; type: physicochemical; settings: compound produced in engineered E. coli, methanolic extract of cell pellets
Description: HPLC and LC-MS Analysis. Samples were analyzed on a Shimadzu Prominence UHPLC system (Kyoto, Japan) coupled with a PDA detector. The compounds were separated on a Phenomenex Luna C8 column (4.6×250 mm, 5 μm) using the following HPLC program: 2% B for 15 min, 2-90% B gradient in 2 min, 90% B for 2 min, 90-2% in 2 min, and re-equilibration in 2% B for 6 min. The A phase was 0.1 M triethylammonium acetate pH 7.0 and the B phase was methanol. The flow rate was set at 0.5 mL/min. In the quantitative analysis of relative activity of MysD with different amino acid substrates, water containing 0.1% formic acid was used as phase A to fully separate MG with MG-Ala. LC-HRMS and HRMS/MS experiments were conducted on Thermo Scientific™ Q Exactive Focus mass spectrometer with Dionex™ Ultimate™ RSLC 3000 uHPLC system, equipped with H-ESI II probe on Ion Max API Source. Methanol (B)/Water (A) containing 0.1% formic acid were used as mobile phases, and the same LC program was used as in the HPLC analysis. The eluents from the first 3 min were diverted to waste by a diverting valve. MS1 signals were acquired under the Full MS positive ion mode covering a mass range of m/z 150-2000, with resolution at 35,000 and AGC target at 1e6. Fragmentation was obtained with the Parallel Reaction Monitoring (PRM) mode using an inclusion list of calculated parental ions. The AGC target was set at 5e4 for MS2. Precursor ions were selected in the quadrapole typically with an isolation width of 3.0 m/z and fragmented in the HCD cell at a collision energy (CE) of 30. For some ions, the isolation width was 2.0 m/z and step-wise CE of 15, 20, and 25 were used.
HPLC and LC-HRMS analysis. Samples were analyzed on a Shimadzu Prominence UHPLC system (Kyoto, Japan) coupled with a PDA detector. Unless stated elsewhere, the following HPLC procedure was performed. The compounds were separated on a Phenomenex Luna C8 column (4.6×250 mm, 5 μm) using the following HPLC program: 2% B for 15 min, 2-90% B gradient in 2 min, 90% B in 2 min, 90-2% in 2 min, and re-equilibration in 2% B for 6 min. The A phase was water with 0.1 M triethylamine acetate (TEAA) at pH 7 and the B phase was methanol. The flow rate was set at 0.5 mL/min. LC-HRMS and HRMS/MS experiments were conducted on a Thermo Scientific Q Exactive Focus mass spectrometer with a Dionex Ultimate RSLC 3000 uHPLC system, equipped with the H-ESI II probe on an Ion Max API Source. Methanol (B)/water (A) containing 0.1% formic acid were used as mobile phases. The eluents from the first 3 min were diverted to waste by a diverting valve. MS1 signals were acquired under the Full MS positive ion mode, covering a mass range of m/z 150-2000, with resolution at 35 000 and AGC target at 1×10^6.

[2] = reported value used to quantify MG; cited from earlier work
MysD = MysD reaction with MG and amino acid substrates (substrate preference); type: biochemical, Nostoc linkia NIES-25; settings: for consumption level of MG in the MysD reaction relative to that with L-Thr (set as 100%): L-Thr and L-Ser 8 min, other amino acids 30 min, from produced disubstituted MAAs; for consumption of MG in the MysD reaction: optimal conditions, after 3 h
Description: The current and previous heterologous expression studies supported the function of MysD in the biosynthesis of disubstituted MAAs (FIG. 3).^29,35 To further characterize its catalytic properties, recombinant His6-tagged MysD of N. linkia NIES-25 was prepared from E. coli after a single affinity purification (FIG. 21). The enzyme reaction was performed with MysD (0.5 μM), MG (50 μM), and L-Thr (1 mM) in the presence of ATP (1 mM) and Mg^2+ (10 mM) at room temperature for 2 h. […] No product was formed in the control reactions without enzyme or ATP (FIG. 5A). The requirement of ATP for the MysD reaction supports its prediction as the D-Ala-D-Ala ligase-like enzyme of the ATP grasp superfamily.^29 The optimal temperature and pH of its reaction were determined at 37° C. and pH=8.5 (FIG. 22). Under these optimal reaction conditions, all 20 natural amino acids were screened (5 mM) along with MG (50 μM) in the MysD reaction. […] LC-HRMS and MS/MS analysis indicated the formation of their corresponding disubstituted MAAs, MG-Ala, MG-Arg (observed [M+H]^+: 402.1977; calculated [M+H]^+: 402.1983), MG-Cys (observed [M+H]^+: 349.1059; calculated [M+H]^+: 349.1064), mycosporine-2-Gly (observed [M+H]^+: 303.1182; calculated [M+H]^+: 303.1187), shinorine, and porphyra-334 (FIGS. 24, 25, and 26). […] Nonetheless, the result of this biochemical study well agreed with the production of porphyra-334 along with small amounts of shinorine and MG-Ala in the above heterologous expression study (FIG. 3C). To further understand MysD's substrate preference, the enzyme concentration was lowered to 0.25 μM. […] The consumed MG level in this reaction was set as 100% to normalize its level in the five other reactions, which was determined from the concentrations of produced disubstituted MAAs in the reactions (FIG. 5C). […] Together, the results of these biochemical studies highlight the broad substrate scope of MysD and its strong preference toward L-Thr in the MAA biosynthesis.
MysD Reaction. MG was purified from extracts of E. coli expressing MysAB2C by HPLC and used as the substrate for the MysD reactions. The quality of MG was calculated based on its reported extinction coefficient (28,100 M^−1cm^−1). The initial MysD reactions included MG (50 μM), L-Thr (1 mM), Mg^2+ (10 mM), and ATP (1 mM) in 100 mM Tris-Cl, pH 7.5. The reactions were initiated by adding MysD (0.5 μM) and then incubated at room temperature for 2 h. The control reactions omitted MysD or ATP. All reactions were quenched by heat inactivation at 95° C. for 10 min. After centrifugation at 20,000×g for 15 min, the clear supernatants were collected for HPLC and LC-HRMS analysis. To determine the optimal reaction conditions, the MysD reaction was performed in 100 mM buffer with a pH of 6.5 to 11 at 16 to 60° C. for 6 min. To explore the substrate scope of MysD, all 20 natural amino acids (5 mM) were screened in the above reaction mixtures under the optimal conditions for 3 h. The reactions were terminated and then analyzed in the HPLC and/or LC-MS analysis. To determine the relative activity of six identified amino acids as MysD's substrates, a two-step strategy was used. First, the reactions were performed with 0.25 μM MysD for 8 min, which led to no more than 50% consumption of MG into porphyra-334 with the best substrate L-Thr and into shinorine with L-Ser. For the other four amino acids, the levels of their corresponding disubstituted MAAs were determined after the reaction time was elongated to 30 min. All reactions were performed in at least two independent replicates.

MysH = MysH reaction steady-state kinetics with porphyra-334; type: biochemical, Nostoc linckia NIES-25; settings: 20 to 1000 uM porphyra-334, 0.5 uM MysH, room temperature, 30 min, pH 7.5
Description: To further characterize the catalytic properties of MysH, the recombinant MysH of Nostoc linckia NIES-25 was prepared with a C-terminal His6-tag in E. coli after a single Ni-NTA affinity purification (FIG. 33A). The MysH reaction contained 50 mM Tris-Cl at pH 7.5, 0.5 uM MysH, 50 uM porphyra-334, 1 mM 2-oxoglutarate (2OG), 1 mM Fe(NH4)2(SO4)2, 10 mM ascorbate, and the reaction was performed at room temperature overnight. MysH successfully converted porphyra-334 into palythine-Thr in the HPLC analysis, while the complete conversion was not achieved with a higher enzyme concentration or a longer reaction time. […] To improve the reaction conversion, different concentrations of 2OG, Fe(NH4)2(SO4)2, ascorbate, and shaking speed were tested, but no significant improvement was observed. On the other hand, the inclusion of catalase led to the full conversion of porphyra-334 by MysH (FIG. 33B). The Fe(III)-O—O· species is likely one key intermediate in the MysH reaction. Hydrogen peroxide may be released via […] of Fe(III)-O—O· and inhibit the enzyme reaction.
The optimal MysH reaction conditions were determined to be 50 mM HEPES, pH 7.5, 0.5 uM MysH, 1 mM α-KG, 1 mM ascorbate, 10 uM Fe(NH4)2(SO4)2, and 8 μg/mL catalase. Steady-state kinetic studies were performed with 20 to 1000 uM porphyra-334, and the reactions were carried out at room temperature for 30 min. The reactions followed Michaelis-Menten kinetics (FIG. 34).

Compound: mycosporine-amine [M-NH2]
maximal absorbance [1]: 298 nm

Compound: COC1=C(NCC(=O)O)C[C@@](O)(CO)CC1=O [MG, mycosporine-glycine]
maximal absorbance [1]: 310 nm
extinction coefficient [2]: 28,100 M^−1cm^−1

Compound: N[C@@H](CS)C(=O)O [L-Cys]
consumption level of MG in the MysD reaction relative to that with L-Thr (set as 100%) (MysD; 0.25 μM MysD): 0.9%

Compound: C[C@H](N)C(=O)O [L-Ala]
consumption level of MG in the MysD reaction relative to that with L-Thr (set as 100%) (MysD; 0.25 μM MysD): 0.4%

Compound: COC1=C(O)CC(O)(CO)CC1=O (centres unmarked) [4-DG, 4-deoxygadusol]
maximal absorbance [1]: 294 nm

Compound: COC1=C(NCC(=O)O)C[C@@](O)(CO)CC1=N[C@H](C(=O)O)[C@@H](C)O [porphyra-334]
maximal absorbance [1]: around 334 nm
Km (MysH): 385 µM
Vmax (MysH): 0.62 µM/min
kcat (MysH): 0.0207 s⁻¹

Compound: C[C@@H](O)[C@H](N)C(=O)O [L-Thr]
MG converted into porphyra-334 (MysD; 0.25 μM MysD, 50 μM MG, 5 mM amino acid, 8 min, optimal conditions (37° C., pH 8.5)): about 40%
consumption of MG in the MysD reaction (MysD; 5 mM amino acid, 50 μM MG): complete consumption of MG

Compound: N[C@@H](CO)C(=O)O [L-Ser]
consumption level of MG in the MysD reaction relative to that with L-Thr (set as 100%) (MysD; 0.25 μM MysD): about 12.7%
consumption of MG in the MysD reaction (MysD; 5 mM amino acid, 50 μM MG): complete consumption of MG

Continued, values first:

maximal absorbance [1]: around 334 nm
Compound: COC1=C(NCC(=O)O)CC(O)(CO)C/C1=N\C(C)C(=O)O (centres unmarked) [MG-Ala, mycosporine-glycine-alanine]

maximal absorbance [1]: 320 nm
Compound: COC1=C(N)CC(O)(CO)CC1=NC(CO)C(=O)O (centres unmarked) [Palythine-Ser, palythine-Ser]

maximal absorbance [1]: 320 nm
Compound: COC1=C(N)C[C@@](O)(CO)C/C1=N\[C@H](C(=O)O)C(C)O (some centres unmarked) [palythine-Thr]
